Data set [1] is described as follows: Cytotoxicity against human THP1 cells assessed as inhibition of cell growth after 48 hrs by sulforhodamine B assay. In kind it is functional, cell-based. To be noted: THP-1, 48 h. (Sulforhodamine B stains cellular protein and so reports cell mass.)
A short description of data set [2]: Cytotoxicity against human HCT116 cells assessed as inhibition of cell growth after 48 hrs by sulforhodamine B assay. In kind it is functional, cell-based. The settings on record: HCT-116, 48 h.
Data set [3] has as its system A549. Nature of the data set: Cytotoxicity against human A549 cells assessed as inhibition of cell growth after 48 hrs by sulforhodamine B assay. To be noted: A549, 48 h. In kind it is functional, cell-based.
The nature of data set [4]: Cytotoxicity against human PC3 cells assessed as inhibition of cell growth after 48 hrs by sulforhodamine B assay. It counts as functional, cell-based. To be noted: PC-3, 48 h.
The test system of data set [5] is PC-3. The data set is described as follows: Induction of apoptosis in human PC3 cells assessed as decrease in cell size at IC50 incubated for 12 hrs by scanning electron microscopy. It counts as functional, cell-based.
Data set [6] deals with PC-3. The data set is described as follows: Induction of apoptosis in human PC3 cells assessed as plasma membrane blebbing at IC50 incubated for 12 hrs by scanning electron microscopy. In kind it is functional, cell-based.
In data set [7] the test system is PC-3. The data set is described as follows: Induction of apoptosis in human PC3 cells assessed as increase in intracellular ROS level after 24 hrs using DCFH-DA by spectrofluorimetric analysis. It counts as functional, cell-based.
Data set [8] can be described thus: Cell cycle arrest in human PC3 cells assessed as accumulation at subG1 phase at 15 uM after 12 hrs by propidium iodide staining based flow cytometry (reference value: 29.6%). To be noted: PC-3. It counts as functional.
Data set [9] concerns PC-3. Nature of the data set: Induction of apoptosis in human PC3 cells assessed as mitochondrial membrane potential depolarization after 12 hrs using rhodamine 123 by spectrofluorimetric analysis. In kind it is functional, cell-based.
Data set [10] has as its system PC-3. The data set is described as follows: Induction of apoptosis in human PC3 cells assessed as smoothening of cell surface at IC50 incubated for 6 hrs by scanning electron microscopy. It counts as functional, cell-based.
The subject of data set [11] is CHO. The data set is described as follows: Induction of apoptosis in CHO cells assessed as necrotic cells at 10 uM after 24 hrs by Annexin V-FITC/propidium iodide staining based flow cytometry (reference value: 4.3%). It counts as cell-based, Cricetulus griseus. The settings on record: chinese hamster. Background: In flow cytometry, cells or beads pass a laser one at a time.

The subject of data set [12] is PC-3. Nature of the data set: Induction of apoptosis in human PC3 cells assessed as plasma membrane blebbing at IC50 incubated for 12 hrs by DAPI staining based confocal microscopy. In kind it is functional, cell-based.
Data set [13] deals with PC-3. The data set is described as follows: Induction of apoptosis in human PC3 cells assessed as cell rounding at IC50 incubated for 12 hrs by DAPI staining based confocal microscopy. In kind it is functional.
A short description of data set [14]: Cell cycle arrest in human PC3 cells assessed as accumulation at subG1 phase at 10 uM after 12 hrs by propidium iodide staining based flow cytometry (reference value: 29.6%). The settings on record: PC-3. It counts as functional.
The test system of data set [15] is PC-3. The data set is described as follows: Induction of apoptosis in human PC3 cells assessed as smoothening of cell surface at IC50 incubated for 12 hrs by scanning electron microscopy. In kind it is functional, cell-based.
The test system of data set [16] is CHO. The data set is described as follows: Induction of apoptosis in CHO cells assessed as early apoptotic cells at 10 uM after 24 hrs by Annexin V-FITC/propidium iodide staining based flow cytometry (reference value: 3%). In kind it is cell-based, Cricetulus griseus. To be noted: chinese hamster.
The nature of data set [17]: Cell cycle arrest in human PC3 cells assessed as accumulation at subG1 phase at 5 uM after 12 hrs by propidium iodide staining based flow cytometry (reference value: 29.6%). In kind it is functional. The settings on record: PC-3.
Data set [18] is described as follows: Induction of apoptosis in CHO cells assessed as viable cells at 10 uM after 24 hrs by Annexin V-FITC/propidium iodide staining based flow cytometry (reference value: 91.8%). In kind it is cell-based, Cricetulus griseus. The settings on record: chinese hamster, read-out: Activity.
Data set [19] deals with PC-3. Nature of the data set: Induction of apoptosis in human PC3 cells assessed as cell shrinkage at IC50 incubated for 12 hrs by DAPI staining based confocal microscopy. It counts as functional.
Data set [20] has as its system CHO. The data set is described as follows: Induction of apoptosis in CHO cells assessed as late apoptotic cells at 10 uM after 24 hrs by Annexin V-FITC/propidium iodide staining based flow cytometry (reference value: 1%). In kind it is cell-based, Cricetulus griseus. The settings on record: chinese hamster.
In data set [21] the test system is PC-3. Nature of the data set: Induction of apoptosis in human PC3 cells assessed as plasma membrane blebbing at IC50 incubated for 6 hrs by scanning electron microscopy. In kind it is functional, cell-based.
A short description of data set [22]: Cell cycle arrest in human PC3 cells assessed as accumulation at subG1 phase after 12 hrs by propidium iodide staining based flow cytometry. It counts as functional. To be noted: PC-3.
Data set [23] in a line: Cell cycle arrest in human PC3 cells assessed as accumulation at subG1 phase at 2 uM after 12 hrs by propidium iodide staining based flow cytometry (reference value: 29.6%). In kind it is functional. To be noted: PC-3.

Molecules are shown by their SMILES. Structures can show the parent of a compound that is named as a salt. Calls of active or inactive are those of the source. The calls are words filed in the database; no cut-off is given here.

Usually IC50 stands for the concentration that gives 50% inhibition.

With `CC1(C)CCC[C@@]2(C)C1=C[C@H]1C(=O)[C@H](c3ccccc3Cl)[C@H]12`, the half-maximal inhibitory concentration (IC50) was > 50 µM in [1], > 50 µM in [2], 25 µM in [3] and > 50 µM in [4].
For `COc1ccccc1[C@H]1OC(=O)[C@@H]2C=C3C(C)(C)CCC[C@]3(C)[C@H]12`, the outcome in data set [5], in [6], in [10], in data set [12], in data set [13] and in [15] was Active. Further, the outcome in data set [19] and in data set [21] was Active. Moreover, the IC50 in data set [1] is > 50 µM; in data set [2], 15 µM; in data set [3] it was 18 µM; in data set [4], 10 µM. For the same compound, the Activity entry in data set [7] is “Dose-dependent effect”; in data set [8], 77.5%; in [9] it was “Dose-dependent effect”; in data set [11], 0.8%; in data set [14], 68.1%; in [16] it was 36.2%. Besides, the Activity stood at 59.8% in [17] and 6.1% in [20]. Also, the viability at 24 h, 10 µM in data set [18] worked out at 56.8%.
Regarding `Cc1ccccc1[C@H]1C(=O)[C@@H]2C=C3C(C)(C)CCC[C@]3(C)[C@H]12`, the IC50 in [1] was > 50 µM; in [2], > 50 µM; in data set [3] it was 28 µM; in data set [4], > 50 µM.
On to `Cc1ccccc1[C@H]1OC(=O)[C@@H]2C=C3C(C)(C)CCC[C@]3(C)[C@H]12`, for which the IC50 in data set [1] is > 50 µM; in [2], > 50 µM; in data set [3], 23 µM; in data set [4], 21 µM.
For the compound `CC1(C)CCC[C@@]2(C)C1=C[C@H]1C(=O)O[C@H](c3ccccc3F)[C@H]12`, the 50% inhibitory concentration (IC50) in data set [1], in [2], in data set [3] and in data set [4] was > 50 µM in each case.
Consider `CC1(C)CCC[C@@]2(C)C1=C[C@H]1C(=O)[C@H](c3ccccc3Br)[C@H]12`, for which the IC50 in data set [1] is 10 µM; in data set [2], 19 µM; in data set [3] it was 28 µM; in data set [4], > 50 µM.
With `O=c1[nH]cc(F)c(=O)[nH]1` [FLUOROURACIL], the IC50 in data set [3] is 0.5 µM.
With `CC1(C)CCC[C@@]2(C)C1=C[C@H]1C(=O)[C@H](c3ccccc3F)[C@H]12`, the IC50 in [1] is 18 µM; in data set [2], 17 µM; in data set [3], 36 µM; in data set [4], > 50 µM.
In the same order, the values of `CC1(C)CCC[C@@]2(C)C1=C[C@H]1C(=O)O[C@H](c3ccccc3Br)[C@H]12` are > 50 µM, > 50 µM, > 50 µM and > 50 µM.
In the same order, the values of `CC1(C)CCC[C@@]2(C)C1=C[C@H]1C(=O)[C@H](c3ccc(Cl)c(Cl)c3)[C@H]12` are > 50 µM, 38 µM, > 50 µM and > 50 µM.
In the same order, the values of `CC1(C)CCC[C@@]2(C)C1=C[C@H]1C(=O)O[C@H](c3ccccc3Cl)[C@H]12` are > 50 µM, > 50 µM, 40 µM and > 50 µM.
In the case of `CC1(C)CCC[C@@]2(C)C1=C[C@H]1C(=O)O[C@H](c3ccc(Cl)c(Cl)c3)[C@H]12`, the half-maximal inhibitory concentration (IC50) in [1] was > 50 µM; in data set [2] it was 20 µM; in data set [3], > 50 µM; in data set [4], 12 µM.
As to `CO[C@@]12[C@H](COC(N)=O)C3=C(C(=O)C(C)=C(N)C3=O)N1C[C@@H]1N[C@@H]12` [MITOMYCIN], the IC50 came out at 0.5 µM in [1] and 0.2 µM in [4].
Consider `COc1cccc2c1C(=O)c1c(O)c3c(c(O)c1C2=O)C[C@@](O)(C(=O)CO)C[C@@H]3O[C@H]1C[C@H](N)[C@H](O)[C@H](C)O1` [DOXORUBICIN HYDROCHLORIDE], for which the IC50 in data set [2] was 0.01 µM.
For the compound `COc1ccccc1[C@H]1C(=O)[C@@H]2C=C3C(C)(C)CCC[C@]3(C)[C@H]12`, the result in data set [5], in [6], in data set [10], in [12], in [13] and in data set [15] was Active. Moreover, the result in [19] and in data set [21] was Active. Besides, the IC50 is 10 µM in [1], 12 µM in data set [2], 10 µM in [3] and 8 µM in data set [4]. The Activity entry in data set [7] was “Dose-dependent effect”; in data set [8], 74.1%; in data set [9], “Dose-dependent effect”; in data set [11], 1.1%; in [22], “Dose-dependent effect”; in [14] it was 56.6%. In addition, the Activity in data set [16] was determined as 37.6%; in data set [17], 45.2%; in [20], 6.9%. Also, the viability at 24 h, 10 µM in data set [18] is 54.5%.
On to `CC[C@@]1(O)C(=O)OCc2c1cc1n(c2=O)Cc2cc3ccccc3nc2-1` [CAMPTOTHECIN], for which the Activity in data set [23] amounted to 60.9%; in [11], 1.2%; in [16] it was 21.6%; in data set [20], 2.4%. Also, the viability at 24 h, 10 µM in data set [18] worked out at 74.8%.

The values are drawn from ChEMBL document CHEMBL3763098, “Induction of apoptosis by cyclobutanones and derived polycyclic -lactones: a preliminary analysis of antiproliferative activity” (Medchemcomm, 2015).
